Test results: US5273979A, “C-31 desmethyl FR-900520 cyclic hemiketal immunosuppressant agent” (Merck & Co., Inc., priority 1991, dated 1993)
pIC50: −log10 of the molar value. “Also recorded” adds a separate entry of the source. Read-outs that look alike come from different tables or passages of the source.

Tests used:
[1] = molecular target: T1, 31-O-desmethylimmunomycin O-methyltransferase (DIMT) (Streptomyces hygroscopicus, UniProt Q9KID5); assay: S-adenosyl-L-methionine: 31-O-desmethylimmunomycin O-methyltransferase (DIMT) assay; assay type: biochemical, Streptomyces hygroscopicus var. ascomyceticus
T1 construct: cell-free extract, DEAE-Sepharose pool, or second MonoQ preparation (kinetics)
T1 sequence (Q9KID5 1-260): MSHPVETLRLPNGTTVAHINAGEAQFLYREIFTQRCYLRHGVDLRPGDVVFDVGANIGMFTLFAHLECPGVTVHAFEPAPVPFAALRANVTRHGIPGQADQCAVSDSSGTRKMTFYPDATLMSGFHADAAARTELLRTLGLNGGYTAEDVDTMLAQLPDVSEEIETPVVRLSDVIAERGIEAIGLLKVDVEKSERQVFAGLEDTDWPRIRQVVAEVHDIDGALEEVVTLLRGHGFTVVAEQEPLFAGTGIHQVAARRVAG
Protocol: The assay was carried out in 1 ml. mixture containing 0.025 mM 31-desmethylimmunomycin, 1 mM MgSO4 and different quantities of the enzyme source in 50 mM phosphate buffer, pH 7.5. Reaction was initiated by the addition of 1 nmole of ^14 C-SAM (S-adenosyl-L-[methyl-^14 C] methionine with the specific activity of 46 mCi/mmole. Incubation of the complete mixture was carried out at 34° C. for 20 minutes and the reaction was terminated by the addition of ethyl acetate. Product of the reaction was extracted with 2 ml of ethyl acetate and 1 ml of the extract was used for TLC and HPLC analysis. For the analysis of the radioactive reaction product (immunomycin), the ethyl acetate extract was spiked with the standard immunomycin and subjected to the TLC with a plate having plastic support. The plastic sheet was developed in chloroform:methanol (9:1) and area showing standard immunomycin under UV-light was cut and the radioactivity in the cut-strip was measured. The amount of the product formed was calculated from the measured radioactivity. For the HPLC analysis of the product of the enzyme reaction, several enzymatic reaction mixtures were pooled and the extract was subjected to the TLC analysis as above. The area on the silica gel plate showing the band having an Rf value identical with the standard immunomycin was scraped and eluted with ethyl acetate. The ethyl acetate extract was washed with water, dried under nitrogen and the residue was subjected to the HPLC analysis on Partisil 5-ODS-3 column with acetonitrile:water:phosphoric acid (65:35:0.1) as the eluting solvent. One milliliter fractions were collected and a portion of each fraction was examined for the radioactivity.
Examination of the optimal temperature, pH and metal requirement of the DIMT activity was carried out on the enzyme preparation obtained from DEAE-Sepharose column. For kinetic analysis, a preparation which had been purified through a second MonoQ column chromatography was utilized.

[2] = test system: Splenic T-cells stimulated with ionomycin + PMA; assay: T-cell proliferation assay (ionomycin plus PMA induced T-cell stimulation assay); assay type: cell-based, mouse
Protocol: Cells were pelleted by centrifugation at 1500 rpm for 8 minutes. Contaminating red cells were removed by treating the pellet with ammonium chloride lysing buffer (GIBCO) for 2 minutes at 4° C. Cold medium was added and cells were again centrifuged at 1500 rpm for 8 minutes. T lymphocytes were then isolated by separation of the cell suspension on nylon wool columns as follows: Nylon wool columns were prepared by packing approximately 4 grams of washed and dried nylon wool into 20 ml plastic syringes. The columns were sterilized by autoclaving at 250° F. for 30 minutes. Nylon wool columns were wetted with warm (37° C.) culture medium and rinsed with the same medium. Washed spleen cells resuspended in warm medium were slowly applied to the nylon wool. The columns were then incubated in an upright position at 37° C. for 1 hour. Non-adherent T lymphocytes were eluted from the columns with warm culture medium and the cell suspensions were spun as above.
The cell suspension was immediately distributed into 96 well flat-bottom microculture plates (Costar) at 200 μl/well. […] The proliferation of T lymphocytes was assessed by measurement of tritiated thymidine incorporation. After 44 hours of culturing, the cells were pulse-labelled with 2 μCi/well of tritiated thymidine (NEN, Cambridge, Mass.). After another 4 hours of incubation, cultures were harvested on glass fiber filters using a multiple sample harvester. Radioactivity of filter discs corresponding to individual wells was measured by standard liquid scintillation counting methods (Betacounter). Mean counts per minute of replicate wells were calculated and the results expressed as percent inhibition of tritiated thymidine uptake (proliferation) as follows: [formula]

Row | Structure (SMILES) | Inhibition of DIMT activity (result in words) [1] | Inhibition of T-cell activation (result in words) [2] | Inhibition of DIMT activity (result in words) ([1]; crude extract) | also measured
1 | Nc1ncnc2c1ncn2[C@@H]1O[C@H](CSCC[C@H](N)C(=O)O)[C@@H](O)[C@H]1O [S-adenosyl-homocysteine (SAH), S-adenosyl-homocysteine] | major inhibition |  |  | 
2 | CC[C@@H]1C=C2COC1(O)C[C@H](O)[C@@H](C)[C@@H](/C(C)=C/[C@@H]1CC[C@@H](O)[C@H](OC)C1)OC(=O)[C@@H]1CCCCN1C(=O)C(=O)[C@]1(O)O[C@H]([C@@H](OC)C[C@@H](C)C2)[C@@H](OC)C[C@H]1C [Compound II] |  | positive inhibition of T-cell activation; also recorded: positive results |  | 
3 | O=C(O)CN(CCN(CC(=O)O)CC(=O)O)CC(=O)O [EDTA] | major inhibition |  | completely inhibited | 
4 | Nc1ncnc2c1ncn2[C@@H]1O[C@H](C[C@@H](N)CC[C@H](N)C(=O)O)[C@@H](O)[C@H]1O [sinefungin] | major inhibition |  |  | 
5 | N.N.O=S(=O)(O)O [ammonium sulfate] |  |  | inhibited | 
6 | CC[C@@H]1C=C2COC1(O)C[C@H](O)[C@@H](C)[C@@H](/C(C)=C/[C@@H]1CC[C@@H](O)[C@H](O)C1)OC(=O)[C@@H]1CCCCN1C(=O)C(=O)[C@]1(O)O[C@H]([C@@H](OC)C[C@@H](C)C2)[C@@H](OC)C[C@H]1C [Compound I] |  | positive inhibition of T-cell activation |  | Activity versus the FK-506 immunosuppressive activity (result in words) [2]: antagonist activity; Reversal of inhibition of T-cell proliferation by IL2 ([2]; 50 units/ml recombinant IL2 added at the initiation of culture): reversed; pIC50 ([2]; Mus musculus, T-cell, general range, read-out: IC50, generally in the range): 7.74 to 8.00
